Each block holds one compound with its values, some of them ahead of it.
Legend:
[1] = test system: Leigh syndrome (GM03672) fibroblasts; experiment: RSL3 cytoprotection assay, Leigh fibroblasts; assay type: cell-based, human; details: for anti-ferroptosis properties compared among test articles: RSL3, 4 hours
Experimental: (§1) Patient fibroblasts were acquired from Coriell Institute for Medical Research (Camden, NJ, USA). GM03672 is an untransformed fibroblast cell line from a Leigh syndrome patient carrying an unknown mutation. GM08402 is an untransformed fibroblast from an apparently healthy individual. Cells were cultured at 37° C. at 5% CO2 in Eagle's Minimum Essential Medium (MEM, Corning), which was supplemented with Earle's salts and non-essential amino acids, 15% qualified fetal bovine serum, and 1% penicillin/streptomycin ([…]) to yield “Complete MEM.”
(§2) To initiate the RSL3 cytoprotection experiment, Healthy (GM08402) and Leigh syndrome (GM03672) fibroblasts were resuspended in Complete MEM. Cells were seeded at 10,000 cells per well in a clear, tissue cultured-treated, 96-well plate and incubated at 37° C. overnight. Following the incubation, supernatant was manually aspirated, taking care not to disrupt cells. […]. Luminescence units were quantified by GEN5 software on a BioTek SYNERGY neo2 plate reader (LUM filter).
(§3) RSL3 is an inhibitor of the enzyme glutathione peroxidase 4 (GPX4), which decreases lipid peroxides. RSL3 inhibition of GPX4 induces ferroptosis through iron-dependent accumulation of lipid ROS. In this assay, Healthy or Leigh fibroblasts were treated for 4 hours with RSL3 to induce ferroptosis or left untreated. Endogenous ATP levels were measured as an indicator of cellular viability using a commercially available kit (CellTiter-Glo® 2.0 Cell Viability Assay (Promega)).
(§4) […]. […] Briefly, ferroptosis was induced with 1 μM RSL3 in healthy fibroblast cells and 375 nM RSL3 in fibroblasts from a patient with Leigh syndrome.
(§5) A preliminary experiment was performed to determine the effect of RSL3 injury on the fibroblasts of a healthy individual (cell line: GM08402) and the fibroblasts of a patient diagnosed with Leigh syndrome (cell line: GM03672).

[2] = test system: rotenone-inhibited Complex I; experiment: Complex I-bypass assay (high-resolution respirometry, O2 consumption); assay type: cell-based, human
Experimental: All high-resolution respirometry experiments were conducted using the Oroboros O2k-Fluorespirometer (Oroboros, Innsbruck, Austria). The Oroboros O2k-Fluorespirometer was calibrated daily using the air calibration protocol on DatLab 7.4 (Oroboros, Innsbruck, Austria). Prior to each experiment requiring the fluorescence module, the AmpR calibration protocol from DatLab 7.4 was used to calibrate the fluorescence signal. Initial data analysis, including setting of marks, was performed using DatLab 7.4.
Complex I-bypass activity was assessed using HRR to measure O2 consumption. […] Values were exported and analyzed using GraphPad Prism 9. […]
Statistical analysis was performed using GraphPad Prism 9. […] RET Assay data were analyzed by 2-way ANOVA using a p-value of 0.05.
Using this assay, the ability of Compounds 1 to 4 and Vatiquinone to bypass rotenone-inhibited Complex I was determined. […] The ability of Compounds 1 to 4 and Vatiquinone to “bypass” Complex I and restore OXPHOS is measured by an increase in oxygen consumption rate following addition of the compound to the chamber.
In executing this assay, in each instance, fibroblasts are added to each chamber of the Oroboros Oxygraph-2K (the “O2k”). […] The addition of rotenone is expected to cause a marked reduction of OXPHOS as measured by a decreased rate of oxygen consumption. […]

15-lipoxygenase (15-LO) [3] = experiment: 15(S)-HETE ELISA following RSL3 treatment, Leigh fibroblasts; assay type: cell-based, human; details: 700 nM RSL3, 1 μM compound, FIG. 11
Experimental: (§6) Samples for the 15(S)-HETE ELISA were generated by the RSL3 cytoprotection assay described above. Healthy or Leigh fibroblasts were resuspended in assay medium, seeded at 200,000 cells per well in a clear, tissue culture-treated, 24-well plate. Cells were incubated at 37° C. for 24 hours. Supernatant was aspirated from each well following the incubation.
(§7) Fibroblasts from both a healthy individual and a patient diagnosed with Leigh syndrome were examined (but not all compounds were examined in each cell type). Activation of ferroptosis has been implicated as a driver of epilepsy, which is commonly associated with Leigh syndrome. […] Kahn-Kirby et al. PLOS One. […] As a key regulator of ferroptosis, 15-LO serves as a rational therapeutic target in Leigh syndrome.

[4] = test system: Leigh (GM03672) fibroblasts; experiment: Erastin cytoprotection assay, Leigh fibroblasts; assay type: cell-based, human; details: 24 hours; for protective effect compared among test articles: 2 μM erastin, FIG. 13
Experimental: (§8) Briefly, Healthy (GM08402) or Leigh (GM03672) fibroblasts were resuspended in assay medium, seeded at 10,000 cells per well in a clear, tissue cultured-treated, 96-well plate, and incubated at 37° C. overnight. Following the incubation, supernatant was manually aspirated from wells, taking care not to disrupt cells. Fibroblasts were co-treated in a final volume of 100 μL with 2 μM erastin (Millipore Corp., Cat #), 250 μM ferric ammonium citrate (FAC), 50 µM ascorbic acid (AA), and a titration of one of each of Compounds 1 to 4 or Vatiquinone ranging from 10 to 1000 nM. Following another 24-hour incubation at 37° C., cell viability was measured using the CellTiter-Glo Luminescent Cell Viability Kit (ProMega) per Manufacturer's instructions. Luminescence units were quantified by GEN5 software on a BioTek SYNERGY neo2 plate reader (LUM filter).
(§9) Briefly, erastin, like RSL3, is known to induce ferroptosis. […] Erastin was incubated with cell fibroblasts for 24 hours to induce ferroptosis. Cells were co-treated with each of Compounds 1 to 4, or Vatiquinone as the test articles. Test articles were administered at a range of concentrations to derive a curve. Cell viability was determined using a commercially available kit that measures ATP production. […] An increase in cell viability as determined by the assay is considered to be protective against ferroptosis.

[5] = test system: Healthy (GM08402) fibroblasts; experiment: RSL3 cytoprotection assay, healthy fibroblasts; assay type: cell-based, human
Experimental: as §1, §2, §3, §4, §5

[6] = test system: Healthy (GM08402) fibroblasts; experiment: Erastin cytoprotection assay, healthy fibroblasts; assay type: cell-based, human; details: 24 hours; for protective effect compared among test articles: 2 μM erastin, FIG. 12
Experimental: as §8, §9

15-lipoxygenase (15-LO) [7] = experiment: 15(S)-HETE ELISA following erastin treatment, healthy fibroblasts; assay type: cell-based, human; details: erastin + FAC + AA, FIG. 14
Experimental: (§10) Samples for the 15(S)-HETE ELISA were generated by the Erastin Assay described above. Healthy or Leigh fibroblasts were resuspended in assay medium, seeded at 200,000 cells/well in a clear, tissue culture-treated, 24-well plate, and incubated at 37° C. for 24 hours. Supernatant was aspirated from each well.
(§11) Ferroptosis was induced using erastin at 2 μM concentration. 15(S)-HETE, which is a metabolite of arachidonic acid and generated by activity of 15-LO, was measured using a commercially available ELISA kit. Data were normalized to the “No treatment” group, which represented fibroblasts that were not injured with erastin.

[8] = Pharmacokinetics of Compound 2 after single intravenous, subcutaneous or oral administration; assay type: in vivo; details: rat, 1 mg/kg IV, 10 mg/kg SC, 10 mg/kg PO
Experimental: • Animals: Rat/Sprague Dawley/Male/Naive 225-250 grams were received from an approved vendor. • Animals were fasted overnight prior to dose administration. Food was returned following the 2 hour sample collection. • Body weights were recorded prior to dose administration. The volume of each dose delivered (ml/kg) was based on each individual animal's body weight. • This was a single dose, serial blood collection study with tissues collected for possible future analysis. • Doses were administered in accordance with test facility standard operating procedures. […].
b) Sample collection—Post Dosing: • Blood samples were collected via jugular vein catheter (JVC) and transferred to tubes with appropriate anticoagulant. The tubes were stored on wet ice until processed to plasma by centrifugation (3500 rpm at 5° C. for 10 minutes) within 20 minutes of collection. Sample aliquots of 100 μL were transferred into individual uniquely labeled matrix tubes containing 10 μL of 5% (v/v) formic acid aqueous solution and stored at nominal −80° C. until analyzed by LC/MS/MS. • Immediately following final serial blood collection (24 hours, JVC), animals were sacrificed and perfused with cold PBS. […]

15-lipoxygenase (15-LO) [9] = experiment: 15(S)-HETE ELISA following RSL3 treatment, healthy fibroblasts; assay type: cell-based, human; details: 700 nM RSL3, 1 μM compound, FIG. 10
Experimental: as §6, §7

15-lipoxygenase (15-LO) [10] = experiment: 15(S)-HETE ELISA following erastin treatment, Leigh fibroblasts; assay type: cell-based, human; details: erastin + FAC + AA, FIG. 15
Experimental: as §10, §11

[11] = tested in the clinic; cited from earlier work
[12] = pontocerebellar hypoplasia type 6, Kahn-Kirby et al.; cited from earlier work
[13] = 2 μM erastin + FAC + AA, compound 10-1000 nM

15-LO inhibition compared among test articles (15-lipoxygenase (15-LO) [3]): superior to Compounds 2, 3 and 4
SMILES: COC1=C(OC)C(=O)C(CCCCCCCCCC(F)(F)F)=C(C)C1=O [Compound 1]
anti-ferroptosis properties compared among test articles ([1]; FIG. 9): roughly equivalent
oxygen consumption rate after rotenone inhibition ([2]; titrated into rotenone-inhibited Leigh fibroblasts, n=6): restored oxygen consumption rate in a dose-dependent manner
protective effect compared among test articles [4]: about equally protective
anti-ferroptosis properties compared among test articles ([5]; 1 μM RSL3, 4 hours, FIG. 8): roughly equivalent
protective effect compared among test articles [6]: about equally protective

SMILES: CC1=C(C)C(=O)C(CC[C@@](C)(O)CC/C=C(\C)CCC=C(F)F)=C(C)C1=O [Compound 2]
anti-ferroptosis properties compared among test articles ([1]; FIG. 9): superior to Compounds 1, 4 and Vatiquinone
15-LO inhibition compared among test articles (15-lipoxygenase (15-LO) [7]): slightly less effective
15-LO inhibition compared among test articles (15-lipoxygenase (15-LO) [3]): roughly equivalent protective effect
tolerability [8]: well tolerated
delivery by mode of administration ([8]; preliminary): effectively administered
inhibition of 15-lipoxygenase (15(S)-HETE in supernatant) (15-lipoxygenase (15-LO) [9]; 24 hours): inhibited 15-lipoxygenase
15-lipoxygenase inhibition compared among test articles (15-lipoxygenase (15-LO) [9]): roughly equivalent protective effect
15-LO inhibition compared among test articles (15-lipoxygenase (15-LO) [10]): slightly less effective
protective effect compared among test articles [4]: superior in their protective effect
anti-ferroptosis properties compared among test articles ([5]; 1 μM RSL3, 4 hours, FIG. 8): superior to Compounds 1, 4 and Vatiquinone
protective effect compared among test articles [6]: superior in their protective effect

SMILES: COC(=O)c1ccc([C@H]2c3[nH]c4ccccc4c3C[C@H](C(=O)OC)N2C(=O)CCl)cc1 [RSL3, (1S,3R)-Methyl 2-(2-chloroacetyl)-2,3,4,9-tetrahydro-1-[4-(methoxycarbonyl)phenyl]-1H-pyrido[3,4-b]indole-3-carboxylate, reference compound]
concentration sufficient for 25-30% killing of cells ([1]; Leigh fibroblasts, FIG. 7): 700 nM
concentration sufficient for 25-30% killing of cells ([5]; healthy fibroblasts, FIG. 7): 1 µM

SMILES: CC(C)=CCC/C(C)=C/CC/C(C)=C/CC[C@@](C)(O)CCC1=C(C)C(=O)C(C)=C(C)C1=O [Vatiquinone, reference compound]
protective effect against RSL3 induced ferroptosis (cell viability, ATP) ([1]; 375 nM RSL3, 4 hours, compound 10-1000 nM, FIG. 9): protective effect
anti-ferroptosis properties compared among test articles ([1]; FIG. 9): roughly equivalent
Complex I by-pass activity ([2]; concentrations from 125 nM to 8 μM): inactive
clinical results in Leigh syndrome [11]: disappointing
protective effect against erastin induced ferroptosis (cell viability, ATP) [4, 13]: protective effect
protective effect compared among test articles [4]: superior in its protective effect as compared with Compounds 1 and 4
anti-ferroptosis properties compared among test articles ([5]; 1 μM RSL3, 4 hours, FIG. 8): roughly equivalent
protective effect against RSL3 induced ferroptosis (cell viability, ATP) ([5]; 1 μM RSL3, 4 hours, compound 10-1000 nM, FIG. 8): protective effect
seizure frequency and morbidity [12]: decrease seizure frequency and morbidity
protective effect against erastin induced ferroptosis (cell viability, ATP) [6, 13]: protective effect
protective effect compared among test articles [6]: about equally protective

Reference: patent publication US20250144049A1, “METHODS, COMPOSITIONS, AND USES RELATED TO THE TREATMENT AND PREVENTION OF LEIGH SYNDROME” (Stealth BioTherapeutics Inc., priority 2023, published 2025)
